# Results from patent EP0332679B1, “ANTIVIRAL CO[…] […] AND METHOD FOR TREATING […]” (NEW YORK UNIVERSITY, priority 1987, dated 1989).
# “And” between values parts separate entries of the source, which are not always exact repeats. Equal entries are not always repeated. “Also recorded” adds a separate entry of the source.
# Legend:
# [1] = test system: Radiation Leukemia Virus (RadLV); assay: H-2 antigen expression in thymocytes (FACS) after intrathymic inoculation of radiation leukemia virus; format: in vivo, B10.T(6R) mice
# From the text: The intrathymic inoculation of murine radiation leukemia virus in susceptible strains of mice results in the malignant transformation of the thymocytes and the development of overt leukemia (as described in Meruelo, D. et al J. Exp. Med. 147: 470-487, 1978). […] Among the early events which follow the viral infection in some mouse strains is a dramatic increase in the cell surface expression of class I H-2 antigens. This increase is then followed by a reduction in the expression of these antigens after the malignant transformation and subsequent development of leukemia. The changes in H-2 antigen expression have been utilized to monitor viral infectivity and to determine the effects of Hy and Ps on the level of infectivity of this virus.
# Murine radiation leukemia virus (RadLV) was inoculated intrathymically into B10.T(6R) mice as described in Meruelo et al (supra). Groups of six mice were treated 24 h later with 30 µg per mouse of compound Hy administered intraperitoneally in isotonic saline solution. The mice were sacrificed ten days later and the expression of Class I H-2 antigens determined by analysis with a fluorescence activated cell sorter (Ortho Cytofluorograph Model 50H, Ortho Diagnostic Systems, Westwood, MA) (FACS), using X-56 anti-H-2D^d mouse monospecific antibodies (as described in Meruelo, et al supra; similar antibodies are available as ATCC No. HB75, American Type Culture Collection, Rockville, MD).
# [2] = test system: Friend Leukemia Virus (FV); assay: Splenomegaly after Friend Leukemia Virus infection, compound given intraperitoneally 24 h after intravenous virus; format: in vivo, BALB/c mice; settings: for Spleen weight: individual mice
# From the text: Friend Leukemia virus (FV) an aggressive retrovirus induces an acute erythroleukemia in sensitive strains of mice such as BALB/c and NIH SWISS mice (as described in Friend, C. J. Exp. Med. 105: 307-324, 1957; Friend, C. et al Nat. Cancer Inst. Monogr. 22: 505-522, 1966; Friend, C. et al Proc. Natl. Acad. Sci. U.S.A. 68: 378-383, 1971). The malignant transformation is the result of the combined activities of the spleen focus forming virus (SFFV) and the ecotropic murine Friend Leukemia helper virus (F-MuLv). The acute erythroleukemia is characterized by hepatosplenomegaly (a marked increase in the size of the spleen and liver) and a severe anemia.
# Friend Leukemia virus was prepared by homogenizing the enlarged spleen of a mouse previously infected with FV, 10 days after intravenous virus injection. The spleen was homogenized in phosphate buffered saline in a volume equal to 10 times the weight of the isolated spleen.
# The effects of Hy and Ps on the increase in spleen size (splenomegaly) of BALB/c mice (Jackson Labs, Bar Harbor, ME) was examined. […] The animals were then sacrificed ten days later and their spleens weighed.
# [3] = test system: Friend Leukemia Virus (FV); assay: Liver function (serum liver-associated proteins) of FV infected mice with or without compound; format: in vivo, BALB/c mice; settings: for CHOLEST: pooled serum of 4 mice
# From the text: BALB/c mice were inoculated with FV at a concentration of 2x10⁵ FFU. Each group of animals contained 4 mice, and analyses were done in pooled aliquots.
# In Table 3, BU = Total Bilirubin, AP = Alkaline phosphatase, LDH = Lactate dehydrogenase, SGOT = Serum glutamyl aminotransferase, SGPT = […], and GGT = Gamma-glutamyl-transpeptidase.
# [4] = test system: Friend Leukemia Virus (FV); assay: Splenomegaly after simultaneous intravenous co-administration of compound with FV; format: in vivo, mice; settings: for Spleen Weights: individual mice
# Procedure: A different experimental design was also tested involving the simultaneous intravenous co-administration of Ps with the FV complex. In this case, the viral preparation was mixed with Ps at various concentrations and the mixture was injected into the mouse tail vein in a final volume of 0.5ml. The mice were sacrificed ten days later, the spleens weighed and the level of inhibition of splenomegaly subsequently determined.
# [5] = in vivo; cited from earlier work
# [6] = in vivo; cited from earlier work; remark: listed apart in the source
# [7] = FV 2x10^5 FFU, 2 injections 80 μg/mouse
# [8] = FV 2x10^5 FFU, single i.p. injection 80 μg/mouse
# [9] = FV 10^6 FFU, 2 injections 80 µg/mouse
# [10] = FV 10^6 FFU, single i.p. injection 80 µg/mouse
# [11] = IPFVIVPS: FV intraperitoneal, Ps intravenous, pooled serum
# [12] = IVFVIPPS: FV intravenous, Ps intraperitoneal, pooled serum
compound,measurement,setting,value
"Cc1cc(O)c2c(=O)c3c(O)cc(O)c4c5c(O)cc(O)c6c(=O)c7c(O)cc(CO)c8c1c2c(c34)c(c65)c78 [Ps, pseudohypericin]",effect on RadLV-induced increase in H-2 expression (in words),[1]; 30 µg per mouse i.p. 24 h after viral inoculation,No effects on H-2 expression
same,mean fluorescent intensity in fluorescent units,"[1]; individual mice, 30 μg/mouse i.p. 24 h after intrathymic RadLV, thymocytes ten days later",(713.3) fluorescent units; also recorded: (639) fluorescent units
same,% of cells stained with antibody,"[1]; individual mice, 30 μg/mouse i.p. 24 h after intrathymic RadLV, thymocytes ten days later, anti-H-2D^d antibody",97.4% and 94.3%
same,% Inhib (splenomegaly),[2]; [7],81.7%
same,Net change from control (spleen weight),[2]; [7],Net change from control=0.1292
same,"Spleen weight, mean (x̄)",[2]; [7],x̄=0.3138±0.1197 g
same,% Inhib (splenomegaly),"[2]; FV 2x10^5 FFU, 2 injections 80 μg/mouse, listed as PS",% Inhib=81.15
same,% Inhib (splenomegaly),[2]; [8],89.6%
same,Net change from control (spleen weight),[2]; [8],Net change from control=0.0714
same,"Spleen weight, mean (x̄)",[2]; [8],x̄=0.2560±0.0723 g
same,% Inhib (splenomegaly),"[2]; FV 2x10^5 FFU, single i.p. injection 80 μg/mouse, listed as PS",% Inhib=89.58
same,% Inhib (splenomegaly),[2]; [9],90.7%
same,Net change from control (spleen weight),[2]; [9],Net change from control=0.0841
same,"Spleen weight, mean (x̄)",[2]; [9],x̄=0.2687±0.0621 g
same,% Inhib (splenomegaly),"[2]; FV 10^6 FFU, 2 injections 80 µg/mouse, listed as PS",% Inhib=90.70
same,% Inhib (splenomegaly),[2]; [10],93.8%
same,Net change from control (spleen weight),[2]; [10],Net change from control=0.0558
same,"Spleen weight, mean (x̄)",[2]; [10],x̄=0.2404±0.0482 g
same,% Inhib (splenomegaly),"[2]; FV 10^6 FFU, single i.p. injection 80 µg/mouse, listed as PS",% Inhib=93.82
same,Spleen weight,[2]; [7],0.2722 Spleen weight (g ) and 0.2438 Spleen weight (g ) and 0.4924 Spleen weight (g ) and 0.2469 Spleen weight (g )
same,Spleen weight,[2]; [8],0.2208 Spleen weight (g ) and 0.1791 Spleen weight (g ) and 0.3457 Spleen weight (g ) and 0.2784 Spleen weight (g )
same,Spleen weight,"[2]; FV 10^6 FFU i.v., 2 daily consecutive i.p. injections of 80 µg/mouse",0.2457 Spleen weight (g ) and 0.3400 Spleen weight (g ) and 0.2938 Spleen weight (g ) and 0.1956 Spleen weight (g )
same,Spleen weight,"[2]; FV 10^6 FFU i.v., single i.p. injection 80 µg/mouse 24 h later, sacrificed ten days later",0.2831 Spleen weight (g ) and 0.2761 Spleen weight (g ) and 0.2215 Spleen weight (g ) and 0.1810 Spleen weight (g )
same,CHOLEST,"[3]; IPFVIVPS: FV intraperitoneal (2x10^5 FFU), Ps intravenous",137 mg/dL
same,ALBUMIN,[3]; [11],3.2 g/dL
same,AP (Alkaline phosphatase),[3]; [11],200 IU/l
same,BU (Total Bilirubin),[3]; [11],0.3 mg/dL
same,GGT (Gamma-glutamyl-transpeptidase),[3]; [11],4 miu/ml
same,LDH (Lactate dehydrogenase),[3]; [11],2305 IU/l
same,SGOT,[3]; [11],244 IU/l
same,SGPT,[3]; [11],135 IU/l
same,Total PROTEIN,[3]; [11],5.5 g/dL
same,CHOLEST,"[3]; IVFVIPPS: FV intravenous (2x10^5 FFU), Ps intraperitoneal",109 mg/dL
same,ALBUMIN,[3]; [12],3.4 g/dL
same,AP (Alkaline phosphatase),[3]; [12],226 IU/l
same,BU (Total Bilirubin),[3]; [12],0.1 mg/dL
same,LDH (Lactate dehydrogenase),[3]; [12],3303 IU/l
same,SGOT,[3]; [12],213 IU/l
same,SGPT,[3]; [12],99 IU/l
same,Total PROTEIN,[3]; [12],5.7 g/dL
same,% inhibition (splenomegaly),[4]; 5mcg per mouse i.v. with FV,75.44%
same,"Spleen Weights, mean (x̄)",[4]; 5mcg per mouse i.v. with FV,x̄=0.3862 ±0.0353 grams
same,% inhibition (splenomegaly),"[4]; 5mcg per mouse i.v. with FV, listed as PS",= 75.44%
same,% inhibition (splenomegaly),[4]; 20 mcg per mouse i.v. with FV,100%
same,"Spleen Weights, mean (x̄)",[4]; 20 mcg per mouse i.v. with FV,x̄=0.1614 ±0.0253 grams
same,% inhibition (splenomegaly),"[4]; 20 mcg per mouse i.v. with FV, listed as PS",100%
same,% inhibition (splenomegaly),[4]; 50mcg per mouse i.v. with FV,100%
same,"Spleen Weights, mean (x̄)",[4]; 50mcg per mouse i.v. with FV,x̄=0.1572 ±0.0217 grams
same,% inhibition (splenomegaly),"[4]; 50mcg per mouse i.v. with FV, listed as PS",100%
same,Spleen Weights,"[4]; 5mcg per mouse i.v. mixed with FV, sacrificed ten days later",0.3425 grams and 0.3766 grams and 0.4005 grams and 0.4255 grams
same,Spleen Weights,[4]; 20 mcg per mouse i.v. mixed with FV,0.1655 grams and 0.1426 grams and 0.1433 grams and 0.1966 grams
same,Spleen Weights,[4]; 50mcg per mouse i.v. mixed with FV,0.1830 grams and 0.1674 grams and 0.1422 grams and 0.1365 grams
"Cc1cc(O)c2c(=O)c3c(O)cc(O)c4c5c(O)cc(O)c6c(=O)c7c(O)cc(C)c8c1c2c(c34)c(c78)c65 [Hy, hypericin]",effect on the human organism (in words),[5],tonic and tranquilizing effect
same,% inhibition (of virus-induced increase in H-2 antigen expression),"[1]; mouse, in vivo",(1) % inhibition = 100-[(Treated 30 μg) - (Base Line) / Virus Induced - Base Line] x100=82%
same,% of cells stained with antibody,"[1]; mouse, in vivo, ip",76.7% and 77.2% and 96.3% and 84.8% and 54.0% and 97.8%
same,"% of cells stained with antibody, mean (x̄)","[1]; mouse, in vivo, ip",x̄=81.13%
same,effect on RadLV-induced increase in H-2 expression (in words),"[1]; mouse, in vivo, ip",significant inhibition in the increase in H-2 expression in four of the six mice tested
same,photosensitivity (in words),[6],produce photosensitivity upon ingestion
